test system: recombinant AMPK proteins (α1β1γ1, α2β1γ1, α1(1-335), α1(1-394) or α2(1-394)); assay: Scintillation Proximity Assay (SPA), AMPK activation; format: biochemical, human; details: effective concentration of activator for 50% of maximal enzyme activity; 50 nM AMPK, 2 μM ATP, 2 μM biotin-SAMS, 30° C., 2 hours
Protocol: Recombinant human AMPK α1β1γ1, α2β1γ1 or AMPK α subunit truncations α1(1-335), α1(1-394) and α2(1-394) were constructed, expressed and purified as described previously (Pang, T., Zhang, Z. S., Gu, M., Qiu, B. Y., Yu, L. F., Cao, P. R., Shao, W., Su, M. B., Li, J. Y., Nan, F. J., and Li, J. (2008). Rat liver AMPK heterotrimer enzyme was obtained from Upstate (Billerica, Mass., U.S.A.).
Scintillation Proximity Assay
Before the Scintillation Proximity Assay (SPA) assay, 200 nM recombinant AMPK proteins (α1β1γ1, α2β1γ1, α1(1-335), α1(1-394) or α2(1-394)) were fully phosphorylated as described previously (Pang et al., 2008). SPA reactions were performed in 96-well plates at a final volume of 50 μL containing 20 mM Tris-HCl pH 7.5, 5 mM MgCl2, 1 mM DTT, 2 μM biotin-SAMS, 2 μM ATP, 0.2 μCi/well [γ-^33P]ATP, and various amount of activator. Reactions were initiated by the addition of 50 nM recombinant AMPK proteins to the reaction solutions and incubated at 30° C. for 2 hours. After that, reactions were terminated by the addition of 40 μL stop solution containing 80 μg streptavidin-coated SPA beads per well, 50 mM ED TA, 0.1% Triton X-100 in PBS, pH 7.5 and incubated for 1 hour. Finally, a 160 μL suspension solution containing 2.4 M CsCl, 50 mM EDTA, and 0.1% Triton X-100 in PBS (pH 7.5) was added to the reaction solution to suspend SPA beads completely. SPA signals were determined with a Wallac MicroBeta plate counter (PerkinElmer) 30 min later for calculation of the amount of product formed. The amount of products formed in 2 hour was plotted against activator concentrations to determine the effective concentration of the activator (EC50) required for 50% of maximal enzyme activity.

EC50 [µM]	Structure (SMILES)
4.41	CC(C)NC(=O)c1ccc2c(c1)C1(CCCC1)CC(c1cc(F)ccc1Br)N2 (stereo not shown) [Example 60, 2-(2-Bromo-5-fluoro-phenyl)-spiro(cyclopentane-1,4′-1′,2′,3′,4′-tetrahydroquinoline)-6-carboxylic acid isopropylamide]
5.98	O=C(NC1CCC1)c1ccc2c(c1)C1(CCCC1)CC(c1cc(Cl)ccc1Cl)N2 (stereo not shown) [Example 61, 2-(2,5-Dichloro-phenyl)-spiro(cyclopentane-1,4′-1′,2′,3′,4′-tetrahydroquinoline)-6-carboxylic acid cyclobutylamide]
1.59	O=C(NC1CCC1)c1ccc2c(c1)C1(CCCC1)CC(c1cccc(F)c1)N2 (stereo not shown) [Example 62, 2-(3-Fluoro-phenyl)-spiro(cyclopentane-1,4′-1′,2′,3′,4′-tetrahydroquinoline)-6-carboxylic acid cyclobutylamide]
2.37	CNC(=O)c1ccc2c(c1)C1(CCCC1)CC(c1cccc(N3CCOCC3)c1)N2 (stereo not shown) [Example 63, 2-(3-Morpholin-4-yl-phenyl)-spiro(cyclopentane-1,4′-1′,2′,3′,4′-tetrahydroquinoline)-6-carboxylic acid methylamide]
7.68	O=C(NC1CCC1)c1ccc2c(c1)C1(CCCC1)CC(c1cc(Cl)ccc1F)N2 (stereo not shown) [Example 64, 2-(5-Chloro-2-fluoro-phenyl)-spiro(cyclopentane-1,4′-1′,2′,3′,4′-tetrahydroquinoline)-6-carboxylic acid cyclobutylamide]
5.53	CC1(C)CC(c2cc(Cl)ccc2Cl)Nc2ccc(C(=O)NC3CCC3)cc21 (stereo not shown) [Example 66, 2-(2,5-Dichloro-phenyl)-4,4-dimethyl-1,2,3,4-tetrahydro-quinoline-6-carboxylic acid cyclobutylamide]
15.1	CC1(C)CC(c2cc(Cl)ccc2F)Nc2ccc(C(=O)NC3CCC3)cc21 (stereo not shown) [Example 67, 2-(5-Chloro-2-fluoro-phenyl)-4,4-dimethyl-1,2,3,4-tetrahydro-quinoline-6-carboxylic acid cyclobutylamide]
1.56	CC(CO)(CO)NC(=O)c1ccc2c(c1)C(C)(C)CC(c1cccc(N3CCOCC3)c1)N2 (stereo not shown) [Example 68, 4,4-Dimethyl-2-(3-morpholin-4-yl-phenyl)-1,2,3,4-tetrahydro-quinoline-6-carboxylic acid (2-hydroxy-1-hydroxymethyl-1-methyl-ethyl)-amide]
4.18	O=C(NC1CCC1)c1ccc2c(c1)C1(CCCC1)CC(c1ccc(F)c(Cl)c1)N2 (stereo not shown) [Example 69, 2-(3-Chloro-4-fluoro-phenyl)-spiro(cyclopentane-1,4′-1′,2′,3′,4′-tetrahydroquinoline)-6-carboxylic acid cyclobutylamide]
9.17	CCC1(C)CC(c2ccc(F)c(Cl)c2)Nc2ccc(C(=O)NC3CCC3)nc21 (stereo not shown) [Example 70, 6-(3-Chloro-4-fluoro-phenyl)-8-ethyl-8-methyl-5,6,7,8-tetrahydro-[1,5]naphthyridine-2-carboxylic acid cyclobutylamide]
